For test [1], the system named is Wnt pathway (TOP-GFP reporter). In words: TOP-GFP Wnt reporter assay in MEFs. In kind it is cell-based, mouse. The method, then: Mouse embryonic fibroblasts (MEFs, ATCC) and HEK293T (ATCC) cells were both cultured in Dulbecco's Modified Eagle's Medium (DMEM) supplemented with 10% fetal calf serum (FCS), 1% Glutamine, and antibiotic penicillin and streptomycin. Cells were maintained at 37° C. in humidified air containing 5% CO2. All cell lines were routinely checked for mycoplasm contamination, no cell line authentication was performed.
Mouse embryonic fibroblasts (MEFs) were cultured in Dulbecco's Modified Eagle's Medium (DMEM) supplemented with 10% fetal calf serum (FCS), 1% Glutamine, and antibiotic penicillin and streptomycin. MEFs were stably transduced with Wnt reporter TOP-GFP (Addgene plasmid #35491). For TOP-GFP assays, cells were stimulated with Wnt3A conditioned medium for 24 hours after which GFP positivity was measured by flow cytometry.
A general note: In a reporter assay the amount or activity of a reporter protein is the signal.

The subject of test [2] is WT organoids. In words: Murine WT intestinal organoids incubated with conditioned medium or recombinant Wnt antagonists (expansion, clonogenicity). In kind it is cell-based, mouse. Conditions: for Expansion and clonogenicity of WT organoids: overexpression CM or recombinant protein: NOTUM 2 μg/mL, WIF1 5 μg/mL, DKK2 1 μg/mL. The method, then: Murine intestinal crypts were isolated from Lgr5-EGFP-IRES-Cre^ERT2, Lgr5-EGFP-IRES-Cre^ERT2;Ape/or Villin-Cre^ERT2;Apc^fl/fl mice as described by Sato et al.^35. In short, intestines were removed from the mouse and washed thoroughly with ice-cold PBS. Next, the intestine was opened longitudinally and the villi were gently scraped off by a glass cover slide. The intestine was cut into pieces of 5×5 mm and incubated in 2 mM EDTA solution for 30 min. at 4° C. After removal of the EDTA, the crypts were resuspended in ice-cold 1% FCS in PBS by vigorously shaking the tube and passing the supernatant through a 70 µm strainer. Isolated crypts were resuspended in Matrigel® (Corning) and seeded in pre-heated 24-well plates, supplemented with basal organoid medium consisting of advanced DMEM/F12 medium (Gibco) containing 100× N2 and 50× B27 supplements, 100× Glutamax, 5 mM HEPES, 1 mM N-acetyl-L-cysteine (Sigma), and 100× antibiotic/antimycotic (all Gibco). The basal organoid medium was freshly supplemented with the following growth factors: mouse EGF 50 ng/ml (TEBU-BIO), R-spondin (conditioned medium), Noggin (conditioned medium). The first two days after crypt isolation CHIR99021 (Axon Medchem) and ROCK inhibitor (Sigma) was added to the medium. Ctnnb1^S organoids expressing a constitutive active variant of β-catenin were generated as described by Adam et al.^36. For in vitro recombination of loxP flanked alleles, 1 μM 40H-Tamoxifen (Sigma) was added to the medium. Recombination of the Apc gene was validated by digital droplet PCR (Bio-Rad) using EvaGreen® Supermix (Bio-Rad). Lgr5-EGFP-IRES-Cre^ERT2 organoids, referred to as wild type (WT) organoids, were stably transduced with a red fluorescent mCherry construct (LeGO-C2, Addgene #27399). The in vitro recombined Lgr5-EGFP-IRES-Cre^ERT2;Apc^fl/fl, referred to as Apc^−/−, were stably transduced with a green fluorescent Venus construct (LeGO-V2, Addgene #27340). During competition assays, organoids were plated in equal numbers in 24-well plates and full wells were scanned over time by the EVOS FL Cell Imaging System (Thermo Scientific). Conditioned medium (CM) was taken from 2-3 day old WT or Apc^−/− organoid cultures and freshly supplemented with growth factors R-spondin, Noggin and mEGF. During the competition assays the medium (normal and conditioned) was replaced every other day to minimize effects of medium depletion. To assess the effect of medium depletion, CM was 10× concentrated using 10 kDa Amicon® centrifugal filters (Millipore) and added to fresh ENR medium as 1:10. […] Recombinant proteins NOTUM (2 μg/mL, R&D, 9150-NO-050), WIF1 (5 μg/mL, R&D, 135-WF-050) and DKK2 (1 μg/mL, R&D, 2435-DKB-010) were freshly added to the culture medium, medium was refreshed every other day.

For `Cc1c[nH]c(-c2cnc(NCCNc3ccc(C#N)cn3)nc2-c2ccc(Cl)cc2Cl)n1` [CHIR99021], the “Effect on Apc-/- CM reduction of Wnt3a mediated Wnt activation (TOP-GFP)” value in test [1] (MEFs, TOP-GFP reporter, 2.5 μM CHIR99021) is listed as “completely abrogated this effect”. Further, the “Resistance to Apc-/- CM induced reduction in proliferation and clonogenicity” value in test [2] (WT organoids, Apc-/- CM, 2.5 μM CHIR) was “resistant to the Apc^−/− CM induced reduction in proliferation and clonogenicity”.
Turning to `O=C([O-])[O-].[Li+].[Li+]` [Li2CO3, lithium carbonate], in test [1] (comparable concentrations (5 or 10 mM)), the “Wnt signalling activation in Wnt reporter assay, Li2CO3 compared with LiCl” value is “activated the same amount of Wnt signalling”.
As to `Cn1c(=O)c2c(ncn2C)n(C)c1=O` [caffeine], the “Rescue of Notum-mediated inhibition of Wnt signalling in Wnt reporter assay” value in test [1] (200 μM caffeine) is listed as “can rescue inhibition of Wnt singalling in vitro”. Besides, the “Clonogenic capacity of wild type intestinal organoids with Apc-mutant CM” value in test [2] (Apc-mutant CM containing Notum, 200 μM caffeine) is “rescue in clonogenic capacity”. For the same molecule, the “Clonogenic capacity of organoids with CM of Apc-mutant, Notum KO organoids” value in test [2] (Apc-mutant Notum KO CM, 200 μM caffeine) is listed as “no effect”.
In the case of “Wif1: Wnt antagonist Wnt inhibitory factor 1, as overexpression CM or recombinant protein”, the “Expansion and clonogenicity of WT organoids” value (shortened to “Expansion and clonogenicity”) in test [2] was “ability to reduce expansion and clonogenicity of WT organoids”.

B1: Dkk2: Wnt antagonist Dickkopf-related protein 2, as overexpression CM or recombinant protein (protein, UniProt Q9UBU2 34-259, looked up)
Dickkopf-related protein 2: KLNSIKSSLGGETPGQAANRSAGMYQGLAFGGSKKGKNLGQAYPCSSDKECEVGRYCHSPHQGSSACMVCRRKKKRCHRDGMCCPSTRCNNGICIPVTESILTPHIPALDGTRHRDRNHGHYSNHDLGWQNLGRPHTKMSHIKGHEGDPCLRSSDCIEGFCCARHFWTKICKPVLHQGEVCTKQRKKGSHGLEIFQRCDCAKGLSCKVWKDATYSSKARLHVCQKI
Take B1: in test [2], the “Expansion and clonogenicity” value was “ability to reduce expansion and clonogenicity of WT organoids”.

B2: Notum: Wnt antagonist Palmitoleoyl-Protein Carboxylesterase, as overexpression CM or recombinant protein (protein, UniProt Q6P988 20-496, looked up)
Palmitoleoyl-protein …: SEGRKTWRRRGQQPPPPPRTEAAPAAGQPVESFPLDFTAVEGNMDSFMAQVKSLAQSLYPCSAQQLNEDLRLHLLLNTSVTCNDGSPAGYYLKESRGSRRWLLFLEGGWYCFNRENCDSRYDTMRRLMSSRDWPRTRTGTGILSSQPEENPYWWNANMVFIPYCSSDVWSGASSKSEKNEYAFMGALIIQEVVRELLGRGLSGAKVLLLAGSSAGGTGVLLNVDRVAEQLEKLGYPAIQVRGLADSGWFLDNKQYRHTDCVDTITCAPTEAIRRGIRYWNGVVPERCRRQFQEGEEWNCFFGYKVYPTLRCPVFVVQWLFDEAQLTVDNVHLTGQPVQEGLRLYIQNLGRELRHTLKDVPASFAPACLSHEIIIRSHWTDVQVKGTSLPRALHCWDRSLHDSHKASKTPLKGCPVHLVDSCPWPHCNPSCPTVRDQFTGQEMNVAQFLMHMGFDMQTVAQPQGLEPSELLGMLSNGS
Take B2: in test [2], the “Expansion and clonogenicity” value is “ability to reduce expansion and clonogenicity of WT organoids”.

The values are drawn from patent US20240091254A1, “WNT AGONISTS FOR PREVENTION OF CANCER” (ACADEMISH MEDISCH CENTRUM, priority 2021, published 2024).
